We go through one substance from patent US6977180B2, “Biosensor” (Duke University, priority 2001, dated 2005).

A short description of assay [1]: electrochemical (ac voltammetry) ligand binding of protein-modified gold electrode, glucose. Particulars: gold disk electrode, 0.1 kHz, read-out: eKd(glucose), dissociation constant of the assembly, determined electrochemically. The protocol:
FIGS. 4A–4D. Ligand-mediated electrochemical responses of four electroactive biomolecular assemblies. Inserts show the current responses observed at different ligand concentrations, measured by scanning the potential at a constant frequency. FIG. 4A. G174C-MBP (1 kHz; ^eKd(maltose)=4 μM; ^fKd(maltose)=1 μM), FIG. 4B. L255C-GBP (0.1 kHz; ^eKd(glucose)=2.0 μM; ^fKd(glucose)=0.4 μM), FIG. 4C. G174C-eZBP, a redesigned variant of MBP that binds zinc (1 kHz; ^eKd (zinc)=10 μM; ^fKd(zinc)=3 μM), FIG. 4D. […]
Electrochemistry. […] Ac current baselines were calculated by linear extrapolation between equidistant potentials from the observed midpoint reduction potential (˜220 mV), as reported previously (Creager et al, Anal. Chem. 70:4257–4263 (1998)). […]

Assay [2] can be described thus: solution ligand binding by intrinsic tryptophan fluorescence of the conjugates, glucose. Particulars: read-out: fKd(glucose), dissociation constant of the protein free in solution. The protocol: FIGS. 4A–4D. Ligand-mediated electrochemical responses of four electroactive biomolecular assemblies. Inserts show the current responses observed at different ligand concentrations, measured by scanning the potential at a constant frequency. FIG. 4A. G174C-MBP (1 kHz; ^eKd(maltose)=4 μM; ^fKd(maltose)=1 μM), FIG. 4B. L255C-GBP (0.1 kHz; ^eKd(glucose)=2.0 μM; ^fKd(glucose)=0.4 μM), FIG. 4C. G174C-eZBP, a redesigned variant of MBP that binds zinc (1 kHz; ^eKd (zinc)=10 μM; ^fKd(zinc)=3 μM), FIG. 4D. E163C-QBP (0.16 kHz; ^eKd(glutamine)=1.0 μM; ^fKd(glutamine)=0.2 μM. Two binding constants are reported: ^eKd is dissociation constant of the assembly, determined electrochemically; ^fKd is the dissocation constant of the protein free in solution, determined by measuring changes in the intrinsic tryptophan fluorescence of the conjugates. (For every protein presented, the ligand-binding affinities determined electrochemically using a disk gold electrode are 2–5 fold weaker than those in solution. However, if a gold microelectrode prepared by flame annealing a gold wire (Creager et al, Anal. Chem. 70:4257 (1998)) is used instead of a gold disk electrode, the electrochemically determined affinities are similar to the solution affinities.
Protein purification and labeling. […]

On to “L255C-GBP: glucose-binding protein mutant L255C carrying the Ru(II) redox reporter”, for which the Kd in assay [1] was determined as 2000 nM; in assay [2], 400 nM.
